Laboratory results reported in patent US20250129104A1, “7H-PYRROLO[2,3-D]PYRIMIDINES AND PREPARATION AND USES THEREOF” (BioSplice Therapeutics, Inc., priority 2021, published 2025).

Target: recombinant DYRK1A kinase (Homo sapiens (Human), UniProt Q13627)
Assay: DYRK1A kinase assay (Ser/Thr 18 peptide Z-lyte FRET assay)
Assay type: biochemical
Conditions: DYRK1A kinase activity; 15 μM ATP, 1 h room temperature; method text calls the value IC50
Method in brief: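 Recombinant human DYRK1A (0.25 μg/mL) with 15 μM ATP and 4 μM Ser/Thr 18 peptide, 1 h at room temperature with compound (11-point, 1:3, 10 μM top, duplicate). Z-lyte development 1 h, then coumarin/fluorescein FRET emission ratio converted to % phosphorylation; IC50 by non-linear regression.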

EC50 | Compound
10.4 nM | COc1nc(N[C@H](C)C(F)(F)F)nc2[nH]cc(-c3cc(F)c4nccn4c3)c12 [Compound 2183, (R)-5-(8-Fluoroimidazo[1,2-a]pyridin-6-yl)-4-methoxy-N-(1,1,1-trifluoropropan-2-yl)-7H-pyrrolo[2,3-d]pyrimidin-2-amine]
69.9 nM | COC[C@@H](C)Nc1nc(OC)c2c(-c3cc(F)c4nccn4c3)c[nH]c2n1 [Compound 2184]
82 nM | COc1nc(NC2CCC(F)(F)CC2)nc2[nH]cc(-c3cc(F)c4nccn4c3)c12 [Compound 2185, N-(4,4-Difluorocyclohexyl)-5-(8-fluoroimidazo[1,2-a]pyridin-6-yl)-4-methoxy-7H-pyrrolo[2,3-d]pyrimidin-2-amine]
2.3 nM | COc1nc(N[C@H]2CC[C@@](C)(O)CC2)nc2[nH]cc(-c3cc(F)c4nccn4c3)c12 [Compound 2186, cis-4-((5-(8-Fluoroimidazo[1,2-a]pyridin-6-yl)-4-methoxy-7H-pyrrolo[2,3-d]pyrimidin-2-yl)amino)-1-methylcyclohexan-1-ol]
3.6 nM | COc1nc(N[C@H]2CC[C@@H](OCC(F)F)CC2)nc2[nH]cc(-c3cc(F)c4nccn4c3)c12 [Compound 2187, N-(cis-4-(2,2-Difluoroethoxy)cyclohexyl)-5-(8-fluoroimidazo[1,2-a]pyridin-6-yl)-4-methoxy-7H-pyrrolo[2,3-d]pyrimidin-2-amine]
1.9 nM | COc1nc(NC2CCC3(CC2)OCCO3)nc2[nH]cc(-c3cc(F)c4nccn4c3)c12 [Compound 2188, 5-(8-Fluoroimidazo[1,2-a]pyridin-6-yl)-4-methoxy-N-(1,4-dioxaspiro[4.5]decan-8-yl)-7H-pyrrolo[2,3-d]pyrimidin-2-amine]
8.1 nM | CCOc1nc(N[C@H](C)C(F)(F)F)nc2[nH]cc(-c3cc(F)c4nccn4c3)c12 [Compound 2189, (R)-4-Ethoxy-5-(8-fluoroimidazo[1,2-a]pyridin-6-yl)-N-(1,1,1-trifluoropropan-2-yl)-7H-pyrrolo[2,3-d]pyrimidin-2-amine]
3 nM | CCOc1nc(N[C@H]2CC[C@@H](O)CC2)nc2[nH]cc(-c3cc(F)c4nccn4c3)c12 [Compound 2190, cis-4-((4-Ethoxy-5-(8-fluoroimidazo[1,2-a]pyridin-6-yl)-7H-pyrrolo[2,3-d]pyrimidin-2-yl)amino)cyclohexan-1-ol]
4.7 nM | Cn1nnc2ccc(-c3c[nH]c4nc(N[C@H]5CC[C@@](C)(O)CC5)ncc34)cc21 [Compound 2191, cis-1-Methyl-4-((5-(1-methyl-1H-benzo[d][1,2,3]triazol-6-yl)-7H-pyrrolo[2,3-d]pyrimidin-2-yl)amino)cyclohexan-1-ol]
6.9 nM | Cn1nnc2ccc(-c3c[nH]c4nc(N[C@H]5CC[C@@H](OCC(F)F)CC5)ncc34)cc21 [Compound 2192, N-(cis-4-(2,2-Difluoroethoxy)cyclohexyl)-5-(1-methyl-1H-benzo[d][1,2,3]triazol-6-yl)-7H-pyrrolo[2,3-d]pyrimidin-2-amine]
2.1 nM | COc1nc(N[C@H](C)C(F)(F)F)nc2[nH]cc(-c3ccc4nnn(C)c4c3)c12 [Compound 2193, (R)-4-Methoxy-5-(1-methyl-1H-benzo[d][1,2,3]triazol-6-yl)-N-(1,1,1-trifluoropropan-2-yl)-7H-pyrrolo[2,3-d]pyrimidin-2-amine]
5.5 nM | COC[C@@H](C)Nc1nc(OC)c2c(-c3ccc4nnn(C)c4c3)c[nH]c2n1 [Compound 2194, (R)-4-Methoxy-N-(1-methoxypropan-2-yl)-5-(1-methyl-1H-benzo[d][1,2,3]triazol-6-yl)-7H-pyrrolo[2,3-d]pyrimidin-2-amine]
9.4 nM | COc1nc(NC2CCN(C)CC2)nc2[nH]cc(-c3ccc4nnn(C)c4c3)c12 [Compound 2195, 4-Methoxy-5-(1-methyl-1H-benzo[d][1,2,3]triazol-6-yl)-N-(1-methylpiperidin-4-yl)-7H-pyrrolo[2,3-d]pyrimidin-2-amine]
11.6 nM | CCOc1nc(N[C@H](C)C(F)(F)F)nc2[nH]cc(-c3ccc4nnn(C)c4c3)c12 [Compound 2196, (R)-4-Ethoxy-5-(1-methyl-1H-benzo[d][1,2,3]triazol-6-yl)-N-(1,1,1-trifluoropropan-2-yl)-7H-pyrrolo[2,3-d]pyrimidin-2-amine]
1.5 nM | CCOc1nc(N[C@H]2CC[C@@H](O)CC2)nc2[nH]cc(-c3ccc4nnn(C)c4c3)c12 [Compound 2197, cis-4-((4-Ethoxy-5-(1-methyl-1H-benzo[d][1,2,3]triazol-6-yl)-7H-pyrrolo[2,3-d]pyrimidin-2-yl)amino)cyclohexan-1-ol]
170 nM | COc1nc(NC2CCC(F)(F)CC2)nc2[nH]cc(-c3ccc4nnn(CC(F)F)c4c3)c12 [Compound 2198, N-(4,4-Difluorocyclohexyl)-5-(1-(2,2-difluoroethyl)-1H-benzo[d][1,2,3]triazol-6-yl)-4-methoxy-7H-pyrrolo[2,3-d]pyrimidin-2-amine]

EC50 | Compound
2.2 nM | FC(F)CO[C@H]1CC[C@@H](Nc2ncc3c(-c4ccc5nccn5n4)c[nH]c3n2)CC1 [Compound 2199, N-(cis-4-(2,2-Difluoroethoxy)cyclohexyl)-5-(imidazo[1,2-b]pyridazin-6-yl)-7H-pyrrolo[2,3-d]pyrimidin-2-amine]
2.6 nM | [2H]C([2H])([2H])O[C@H]1CC[C@@H](Nc2ncc3c(-c4ccn5nccc5c4)c[nH]c3n2)CC1 [Compound 2200, N-(cis-4-(Methoxy-d3)cyclohexyl)-5-(pyrazolo[1,5-a]pyridin-5-yl)-7H-pyrrolo[2,3-d]pyrimidin-2-amine]
5 nM | FC(F)CO[C@H]1CC[C@@H](Nc2ncc3c(-c4ccn5nccc5c4)c[nH]c3n2)CC1 [Compound 2201, N-(cis-4-(2,2-Difluoroethoxy)cyclohexyl)-5-(pyrazolo[1,5-a]pyridin-5-yl)-7H-pyrrolo[2,3-d]pyrimidin-2-amine]
3.9 nM | OCCO[C@H]1CC[C@@H](Nc2ncc3c(-c4ccn5nccc5c4)c[nH]c3n2)CC1 [Compound 2202, 2-((cis-4-((5-(Pyrazolo[1,5-a]pyridin-5-yl)-7H-pyrrolo[2,3-d]pyrimidin-2-yl)amino)cyclohexyl)oxy)ethan-1-ol]
3.4 nM | COCCO[C@H]1CC[C@@H](Nc2ncc3c(-c4ccn5nccc5c4)c[nH]c3n2)CC1 [Compound 2203, N-(cis-4-(2-Methoxyethoxy)cyclohexyl)-5-(pyrazolo[1,5-a]pyridin-5-yl)-7H-pyrrolo[2,3-d]pyrimidin-2-amine]
15.4 nM | COc1nc(N[C@H](C)C(F)(F)F)nc2[nH]cc(-c3ccn4nccc4c3)c12 [Compound 2204, (R)-4-Methoxy-5-(pyrazolo[1,5-a]pyridin-5-yl)-N-(1,1,1-trifluoropropan-2-yl)-7H-pyrrolo[2,3-d]pyrimidin-2-amine]
79.5 nM | COC[C@@H](C)Nc1nc(OC)c2c(-c3ccn4nccc4c3)c[nH]c2n1 [Compound 2205, (R)-4-Methoxy-N-(1-methoxypropan-2-yl)-5-(pyrazolo[1,5-a]pyridin-5-yl)-7H-pyrrolo[2,3-d]pyrimidin-2-amine]
3.2 nM | COc1nc(NC2CCC(F)(F)CC2)nc2[nH]cc(-c3ccn4nccc4c3)c12 [Compound 2206, N-(4,4-Difluorocyclohexyl)-4-methoxy-5-(pyrazolo[1,5-a]pyridin-5-yl)-7H-pyrrolo[2,3-d]pyrimidin-2-amine]
1.7 nM | COc1nc(N[C@H]2CC[C@@H](O)CC2)nc2[nH]cc(-c3ccn4nccc4c3)c12 [Compound 2207, cis-4-((4-Methoxy-5-(pyrazolo[1,5-a]pyridin-5-yl)-7H-pyrrolo[2,3-d]pyrimidin-2-yl)amino)cyclohexan-1-ol]
4.3 nM | COc1nc(N[C@H]2CC[C@@](C)(O)CC2)nc2[nH]cc(-c3ccn4nccc4c3)c12 [Compound 2208, cis-4-((4-Methoxy-5-(pyrazolo[1,5-a]pyridin-5-yl)-7H-pyrrolo[2,3-d]pyrimidin-2-yl)amino)-1-methylcyclohexan-1-ol]
1.6 nM | COc1nc(N[C@H]2CC[C@](C)(O)CC2)nc2[nH]cc(-c3ccn4nccc4c3)c12 [Compound 2209, trans-4-((4-Methoxy-5-(pyrazolo[1,5-a]pyridin-5-yl)-7H-pyrrolo[2,3-d]pyrimidin-2-yl)amino)-1-methylcyclohexan-1-ol]
3.4 nM | [2H]C([2H])([2H])O[C@H]1CC[C@@H](Nc2nc(OC)c3c(-c4ccn5nccc5c4)c[nH]c3n2)CC1 [Compound 2210, 4-Methoxy-N-(cis-4-(methoxy-d3)cyclohexyl)-5-(pyrazolo[1,5-a]pyridin-5-yl)-7H-pyrrolo[2,3-d]pyrimidin-2-amine]
126 nM | COc1nc(N[C@H]2CC[C@@H](OC(F)F)CC2)nc2[nH]cc(-c3ccn4nccc4c3)c12 [Compound 2211, N-(cis-4-(Difluoromethoxy)cyclohexyl)-4-methoxy-5-(pyrazolo[1,5-a]pyridin-5-yl)-7H-pyrrolo[2,3-d]pyrimidin-2-amine]
6.6 nM | COc1nc(N[C@H]2CC[C@@H](OCC(F)F)CC2)nc2[nH]cc(-c3ccn4nccc4c3)c12 [Compound 2212, N-(cis-4-(2,2-Difluoroethoxy)cyclohexyl)-4-methoxy-5-(pyrazolo[1,5-a]pyridin-5-yl)-7H-pyrrolo[2,3-d]pyrimidin-2-amine]
71.9 nM | COc1nc(N[C@H]2CC[C@@H](OCCO)CC2)nc2[nH]cc(-c3ccn4nccc4c3)c12 [Compound 2213, 2-((cis-4-((4-Methoxy-5-(pyrazolo[1,5-a]pyridin-5-yl)-7H-pyrrolo[2,3-d]pyrimidin-2-yl)amino)cyclohexyl)oxy)ethan-1-ol]
1.7 nM | COCCO[C@H]1CC[C@@H](Nc2nc(OC)c3c(-c4ccn5nccc5c4)c[nH]c3n2)CC1 [Compound 2214, 4-Methoxy-N-(cis-4-(2-methoxyethoxy)cyclohexyl)-5-(pyrazolo[1,5-a]pyridin-5-yl)-7H-pyrrolo[2,3-d]pyrimidin-2-amine]
